Patent US7973012B2, “C-phenyl glycitol compound” (Taisho Pharmaceutical Co., Ltd, priority 2006, dated 2011)

Columns and labels:
human SGLT2 = target: T1, human SGLT2 (Homo sapiens, UniProt P31639); experiment: Inhibition test of sodium-dependent sugar uptake in CHO-k1 cells stably expressing human SGLT2; format: cell-based; conditions: CHO-k1 cells expressing human SGLT2; [14C]methyl α-D-glucopyranoside uptake, 37° C., an hour
T1 construct: expressed in transfected cells; host or cells: CHO-k1
T1 sequence (P31639 1-672): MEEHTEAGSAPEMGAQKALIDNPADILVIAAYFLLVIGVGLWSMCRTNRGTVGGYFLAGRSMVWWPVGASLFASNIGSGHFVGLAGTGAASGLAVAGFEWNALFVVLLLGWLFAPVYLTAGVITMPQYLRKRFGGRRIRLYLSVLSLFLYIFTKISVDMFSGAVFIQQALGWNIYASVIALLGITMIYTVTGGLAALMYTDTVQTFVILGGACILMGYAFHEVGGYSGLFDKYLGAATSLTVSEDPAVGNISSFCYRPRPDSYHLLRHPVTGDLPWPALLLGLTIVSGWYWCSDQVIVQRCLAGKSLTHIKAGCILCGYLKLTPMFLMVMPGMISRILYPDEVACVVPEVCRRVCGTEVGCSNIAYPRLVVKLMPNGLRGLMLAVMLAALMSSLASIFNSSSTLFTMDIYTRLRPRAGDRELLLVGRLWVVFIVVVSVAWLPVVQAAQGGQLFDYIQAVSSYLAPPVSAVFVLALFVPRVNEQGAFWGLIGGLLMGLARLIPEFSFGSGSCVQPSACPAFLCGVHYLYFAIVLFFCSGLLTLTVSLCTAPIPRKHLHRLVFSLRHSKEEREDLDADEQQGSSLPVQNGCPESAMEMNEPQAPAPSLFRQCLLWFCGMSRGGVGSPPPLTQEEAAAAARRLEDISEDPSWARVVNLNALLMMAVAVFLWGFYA
Procedure, shortened: (§1)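 CHO-k1 cells stably expressing the human transporter were preincubated 20 min in Na-free choline buffer, then given compound in NaCl uptake buffer with 1 mM [14C]methyl α-D-glucopyranoside (pH 7.4) at 37 °C for 30 min (SGLT1) or 1 h (SGLT2). Radioactivity uptake was compared with compound-free control; IC50 came from 6 concentrations.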

human SGLT1 = target: T2, human SGLT1 (Homo sapiens, UniProt P13866); experiment: Inhibition test of sodium-dependent sugar uptake in CHO-k1 cells stably expressing human SGLT1; format: cell-based; conditions: CHO-k1 cells expressing human SGLT1; [14C]methyl α-D-glucopyranoside uptake, 37° C., 30 minutes
T2 construct: expressed in transfected cells; host or cells: CHO-k1
T2 sequence (P13866 1-664): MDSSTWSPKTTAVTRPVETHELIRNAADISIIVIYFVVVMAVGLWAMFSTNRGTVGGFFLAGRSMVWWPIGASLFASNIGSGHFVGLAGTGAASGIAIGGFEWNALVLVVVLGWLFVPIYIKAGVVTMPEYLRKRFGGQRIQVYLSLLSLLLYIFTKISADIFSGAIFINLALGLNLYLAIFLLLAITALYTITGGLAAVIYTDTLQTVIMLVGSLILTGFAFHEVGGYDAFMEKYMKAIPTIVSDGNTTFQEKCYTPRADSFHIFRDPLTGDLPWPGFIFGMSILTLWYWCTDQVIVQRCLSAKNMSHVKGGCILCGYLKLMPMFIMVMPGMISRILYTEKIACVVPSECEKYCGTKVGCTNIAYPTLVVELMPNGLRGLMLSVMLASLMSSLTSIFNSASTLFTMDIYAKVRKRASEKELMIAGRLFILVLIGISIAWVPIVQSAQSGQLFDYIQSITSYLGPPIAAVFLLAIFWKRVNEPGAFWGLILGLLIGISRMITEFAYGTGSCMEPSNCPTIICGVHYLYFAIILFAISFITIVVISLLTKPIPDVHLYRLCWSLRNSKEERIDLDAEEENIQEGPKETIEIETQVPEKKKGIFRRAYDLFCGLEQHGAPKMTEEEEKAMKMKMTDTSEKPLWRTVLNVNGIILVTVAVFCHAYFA
Procedure, shortened: as §1

[1] = tested on: Streptozotocin diabetic model rats; experiment: Oral glucose tolerance test in streptozotocin diabetic model rats; format: in vivo; conditions: Rattus norvegicus; STZ diabetic SD/IGS rats; 1 mg/kg oral, glucose 2 g/kg oral 5 minutes later; decrease rate of ΔAUC 0-1 h vs control group; read-out: STZ rats-OGTT(2 g/kg) % inhibition ΔAUC0-1 h(mgh/dL) @1 mg/kg
Experimental: 7-week-old SD/IGS rats (from CHARLES RIVER LABORATORIES JAPAN, INC., male) were fasted for about 16 hours. Then to these rats under etherization were administered 50 mg/kg of streptozotocin (STZ) via the tail vein to prepare diabetic model rats. Similarly, to rats under etherization were administered 1 mL/kg physiological saline containing 1.25 mmol/L of citric acid via tail veins to prepare normal control rats. One week (8 weeks old) after administration of STZ or 1.25 mmol/L citric acid physiological saline, the rats were subjected to oral glucose tolerance test.
After the rats were fasted for about 16 hours, the medicament (1 mg/kg) suspended in a 0.5% carboxymethyl cellulose (CMC) aqueous solution was orally administered to a medicament treated group, and only a 0.5% aqueous solution of CMC was orally administered to a control group. At 5 minutes after the administration, a glucose solution (2 g/kg) was orally administered to each rat, and blood was collected at 5 points in total: before the administration (0 time), after 0.25, 0.5, 1 and 2 hours after the oral administration.
The blood was collected from the orbital sinus venosus of each rat under etherization with a heparin-coated blood collection tube and centrifuged, and then blood plasma was separated. The concentration of glucose in the blood plasma was determined with Glucose CII Test Wako from Wako Pure Chemical Industries, Ltd. As for the intensity of inhibitory effect on elevation of blood glucose level, area under the blood glucose level curve (AUC) was calculated by the trapezoidal rule based on the blood glucose levels of the medicament treated group from 0 time to 1 hour time. And a basal value is subtracted from AUC to describe the intensity as area under the blood glucose level increment (ΔAUC) and describe the intensity as a decrease rate from the ΔAUC of the control group.

Row | SMILES | IC50 (human SGLT2) [nM] | IC50 (human SGLT1) [nM] | inhibition in vivo at 1 mg/kg [1] [%]
1 | Cc1cc(O)c([C@@H]2O[C@H](CO)[C@@H](O)[C@H](O)[C@H]2O)cc1Cc1ccc(CCNC(=O)NC(CO)(CO)CO)cc1 [Compound 11, (1S)-1,5-anhydro-1-[5-[4-[2-[[[2-hydroxy-1,1-bis(hydroxymethyl)ethyl]aminocarbonyl]amino]ethyl]benzyl]-2-hydroxy-4-methylphenyl]-D-glucitol] | 34 | 59 | 69.3
2 | Cc1cc(O)c([C@@H]2O[C@H](CO)[C@@H](O)[C@H](O)[C@H]2O)cc1Cc1ccc(CCCNC(=O)NC(CO)(CO)CO)cc1 [Compound 9, (1S)-1,5-anhydro-1-[5-[4-[3-[[[2-hydroxy-1,1-bis(hydroxymethyl)ethyl]aminocarbonyl]amino]propyl]benzyl]-2-hydroxy-4-methylphenyl]-D-glucitol] | 29 | 175 | 50.1
3 | Cc1cc(O)c([C@@H]2O[C@H](CO)[C@@H](O)[C@H](O)[C@H]2O)cc1Cc1ccc(CCCC(=O)NC(C)(C)CO)cc1 [Compound 1, (1S)-1,5-anhydro-1-[2-hydroxy-5-[4-[4-[(2-hydroxy-1,1-dimethylethyl)amino]-4-oxobutyl]benzyl]-4-methylphenyl]-D-glucitol] | 17 | 11 | 41.7
